Source: US20100113334A1, “METHODS FOR REDUCING OR PREVENTING TRANSMISSION OF NOSOCOMIAL PATHOGENS IN A HEALTH CARE FACILITY” (priority 2003, published 2010)

How the values were obtained:
[1] = system: indigenous stool microflora; assay: DGGE of PCR-amplified bacterial ribosomal RNA genes from stool (Example 3); type: in vivo, mice; conditions: subcutaneous clindamycin
[2] = system: clinical isolate VanA strain of E. faecium (VRE); assay: VRE suppression in a mouse model (Example 1); type: in vivo, mice
Source text: (§1) Mice were colonized with a clinical isolate VanA strain of E. faecium (VRE) isolated from a septicemic patient. A single inoculation of 5×10^8 cfu VRE by oral gavage (Day 0) was followed by treatment with vancomycin in the drinking water to maintain colonization. On day 22, each group received the same vancomycin-containing drinking water. […] The control group consisted of five mice, while the ramoplanin group consisted of four mice.

[3] = system: Total Enterococci; assay: VRE suppression in a mouse model (Example 1), total enterococci in faeces; type: in vivo, mice
Source text: as §1

[4] = system: Candida glabrata A239; assay: Minimum-inhibitory concentration for Candida glabrata A239; type: cell-based; conditions: clinical isolate A239
Method: Pathogens Studied: E. faecium C68, a previously described VanB-type clinical VRE isolate, was used for the following murine VRE experiments (Donskey et al., J. Microbial. Meth. 1807: 1-8, 2003). […] Klebsiella pneumoniae P62 is a clinical isolate that produces an SHV type extended-spectrum β-lactamase (ESBL). Candida glabrata A239 is a clinical isolate with a fluconazole minimum-inhibitory concentration of 2 μg/mL.

[5] = Day 22, prior to ramoplanin therapy
[6] = Day 29, completion of ramoplanin therapy
[7] = Day 36, 7 days after completion of ramoplanin therapy

Structure (SMILES): CCC[C@@H]1C[C@@H](C(=O)N[C@@H]([C@H]2O[C@H](SC)[C@H](O)[C@@H](O)[C@H]2O)[C@H](C)Cl)N(C)C1 [clindamycin]
- stool DGGE patterns, mean similarity indices in comparison to pre-treatment patterns [1]: 17%

Structure (SMILES): CN[C@H](CC(C)C)C(=O)N[C@H]1C(=O)N[C@@H](CC(N)=O)C(=O)N[C@H]2C(=O)N[C@H]3C(=O)N[C@H](C(=O)N[C@H](C(=O)O)c4cc(O)cc(O)c4-c4cc3ccc4O)[C@H](O)c3ccc(c(Cl)c3)Oc3cc2cc(c3O[C@@H]2O[C@H](CO)[C@@H](O)[C@H](O)[C@H]2O[C@H]2C[C@](C)(N)[C@H](O)[C@H](C)O2)Oc2ccc(cc2Cl)[C@H]1O [vancomycin]
- Enterococci: VRE [2, 5]: 9.7 log 10 cfu/g faeces
- Enterococci: VRE [2, 6]: 9.4 log 10 cfu/g faeces
- % Mice with VRE ([2]; Day 29, completion of ramoplanin therapy (15 mg/kg/day in drinking water, with 25 mg/kg/day vancomycin)): 100%
- % Mice with VRE [2, 7]: 100%
- Enterococci: VRE [2, 7]: 9.3 log 10 cfu/g faeces
- Enterococci: Total Enterococci [3, 5]: 9.6 log 10 cfu/g faeces
- Enterococci: Total Enterococci [3, 6]: 9.3 log 10 cfu/g faeces
- Enterococci: Total Enterococci [3, 7]: 9.6 log 10 cfu/g faeces

Structure (SMILES): OC(Cn1cncn1)(Cn1cncn1)c1ccc(F)cc1F [fluconazole]
- minimum-inhibitory concentration [4]: 2 µg/mL
